# Assay results: paper PMC8821558, “Cryo-EM structures of human bradykinin receptor-Gq proteins complexes” (Nature Communications, 2022)
# Key:
# [1] = molecular target: T1, wild-type human B2R with wild-type Gq (Homo sapiens, UniProt P30411); assay: Calcium mobilization, CHO cells, WT-B2R & WT-Gq (Calcium-5 kit, Flexstation 3, ex 485/em 525 nm); assay type: cell-based; settings: kallidin-induced calcium mobilization, Mean±S.E.M. from three independent experiments
# T1 construct: expressed in transfected cells; host or cells: CHO cells
# Method: (§1) CHO cells transfected with wild-type or mutated B2R and wild-type or mutated Gq were seeded into 96-well black plates at a density of 30,000 cells per well and incubated for 24 h. Then cells were loaded with reagents from Calcium-5 Assay Kit (Molecular Devices) for 45 min at 37 °C in 5% CO2 according to the manufacturer’s protocol. […] Data were analyzed by GraphPad Prism 5 and presented as Mean ± S.E.M. from three independent experiments.
# Supplementary Table 1 . Calcium mobilization results of WT and mutated constructs. Emax and pEC50 values were presented as Mean±S.E.M. from three independent experiments. Source data are provided as a Source Data file.
# Supplementary Table 3. […] Emax and […]
# (§2) pEC50 values were presented as Mean±S.E.M. from three independent experiments.
# (§3) NA represented not available. Source data are provided as a Source Data file.
# [2] = molecular target: T2, wild-type human B2R with CryoEM Gq (R183Q, Q209L) (Homo sapiens, UniProt P30411); assay: Calcium mobilization, CHO cells, WT-B2R & CryoEM-Gq; assay type: cell-based; settings: kallidin-induced calcium mobilization, Mean±S.E.M. from three independent experiments
# T2 construct: expressed in transfected cells; host or cells: CHO cells
# T2 sequence (P30411 1-391): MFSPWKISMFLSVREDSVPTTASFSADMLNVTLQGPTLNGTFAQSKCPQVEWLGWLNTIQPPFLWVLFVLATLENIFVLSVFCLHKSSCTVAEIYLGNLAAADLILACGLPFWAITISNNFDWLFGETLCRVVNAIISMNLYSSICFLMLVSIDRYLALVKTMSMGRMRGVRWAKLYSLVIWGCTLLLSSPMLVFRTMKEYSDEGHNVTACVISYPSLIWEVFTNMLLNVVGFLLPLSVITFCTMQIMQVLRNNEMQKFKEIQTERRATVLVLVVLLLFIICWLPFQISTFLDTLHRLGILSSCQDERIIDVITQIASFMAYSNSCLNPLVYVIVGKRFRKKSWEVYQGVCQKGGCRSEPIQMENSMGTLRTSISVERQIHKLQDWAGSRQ
# Method: (§4) There was a 10xHis tag at the N-terminus of each subunit.
# as §1
# (§5) Supplementary Table 1 . Calcium mobilization results of WT and mutated
# (§6) constructs. Emax and pEC50 values were presented as Mean±S.E.M. from three
# (§7) independent experiments. Source data are provided as a Source Data file.
# [3] = molecular target: T3, CryoEM B2R (MBP fusion) with CryoEM Gq (R183Q, Q209L) (Homo sapiens, UniProt P30411); assay: Calcium mobilization, CHO cells, CryoEM-B2R & CryoEM-Gq; assay type: cell-based; settings: kallidin-induced calcium mobilization, Mean±S.E.M. from three independent experiments
# T3 construct: HA tag (N); 10xHis tag + TEV site (N); expressed in transfected cells; host or cells: CHO cells
# T3 sequence (P30411 29-391): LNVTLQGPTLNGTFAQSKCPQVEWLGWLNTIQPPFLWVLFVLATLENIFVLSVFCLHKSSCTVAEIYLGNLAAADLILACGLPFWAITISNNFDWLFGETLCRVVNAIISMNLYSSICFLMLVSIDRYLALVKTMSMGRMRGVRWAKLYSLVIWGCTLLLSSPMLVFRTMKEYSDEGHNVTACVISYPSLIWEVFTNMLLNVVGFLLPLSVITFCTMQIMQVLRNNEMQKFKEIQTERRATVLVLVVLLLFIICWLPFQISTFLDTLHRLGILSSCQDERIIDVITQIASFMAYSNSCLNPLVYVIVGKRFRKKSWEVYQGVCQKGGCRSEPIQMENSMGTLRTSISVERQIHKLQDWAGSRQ
# T3 sequence (P50148 1-359 R183Q/Q209L partner): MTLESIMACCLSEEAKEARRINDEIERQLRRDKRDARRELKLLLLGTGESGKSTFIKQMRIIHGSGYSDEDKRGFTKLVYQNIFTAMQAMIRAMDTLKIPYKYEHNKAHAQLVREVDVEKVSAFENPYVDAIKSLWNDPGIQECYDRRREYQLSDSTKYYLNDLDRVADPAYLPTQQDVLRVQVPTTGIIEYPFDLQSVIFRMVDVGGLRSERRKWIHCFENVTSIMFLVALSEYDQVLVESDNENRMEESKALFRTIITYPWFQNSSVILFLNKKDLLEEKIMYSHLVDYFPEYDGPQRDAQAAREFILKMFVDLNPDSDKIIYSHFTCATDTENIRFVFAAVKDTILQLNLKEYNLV
# Method: as §4, §1, §5, §6, §7
# B2R W113A = molecular target: T4, B2R W113A (Homo sapiens, UniProt P30411, W113A); assay: Calcium mobilization, CHO cells, B2R W113A; assay type: cell-based
# T4 construct: expressed in transfected cells; host or cells: CHO cells
# Method: as §1
# (§8) Supplementary Table 3. […] Emax and
# as §2, §3
# B2R F121A = molecular target: T5, B2R F121A (Homo sapiens, UniProt P30411, F121A); assay: Calcium mobilization, CHO cells, B2R F121A; assay type: cell-based
# T5 construct: expressed in transfected cells; host or cells: CHO cells
# Method: as §1, §8, §2, §3
# B2R Y201A = molecular target: T6, B2R Y201A (Homo sapiens, UniProt P30411, Y201A); assay: Calcium mobilization, CHO cells, B2R Y201A; assay type: cell-based
# T6 construct: expressed in transfected cells; host or cells: CHO cells
# Method: as §1, §8, §2, §3
# B2R F286A = molecular target: T7, B2R F286A (Homo sapiens, UniProt P30411, F286A); assay: Calcium mobilization, CHO cells, B2R F286A; assay type: cell-based
# T7 construct: expressed in transfected cells; host or cells: CHO cells
# Method: as §1, §8, §2, §3
# B2R R297A = molecular target: T8, B2R R297A (Homo sapiens, UniProt P30411, R297A); assay: Calcium mobilization, CHO cells, B2R R297A; assay type: cell-based
# T8 construct: expressed in transfected cells; host or cells: CHO cells
# Method: as §1, §8, §2, §3
# B2R Y322A = molecular target: T9, B2R Y322A (Homo sapiens, UniProt P30411, Y322A); assay: Calcium mobilization, CHO cells, B2R Y322A; assay type: cell-based
# T9 construct: expressed in transfected cells; host or cells: CHO cells
# Method: as §1, §8, §2, §3
# B2R E204A = molecular target: T10, B2R E204A (Homo sapiens, UniProt P30411, E204A); assay: Calcium mobilization, CHO cells, B2R E204A; assay type: cell-based
# T10 construct: expressed in transfected cells; host or cells: CHO cells
# Method: as §1, §8, §2, §3
# B2R I213A = molecular target: T11, B2R I213A (Homo sapiens, UniProt P30411, I213A); assay: Calcium mobilization, CHO cells, B2R I213A; assay type: cell-based
# T11 construct: expressed in transfected cells; host or cells: CHO cells
# Method: as §1, §8, §2, §3
# B2R S289A = molecular target: T12, B2R S289A (Homo sapiens, UniProt P30411, S289A); assay: Calcium mobilization, CHO cells, B2R S289A; assay type: cell-based
# T12 construct: expressed in transfected cells; host or cells: CHO cells
# Method: as §1, §8, §2, §3
# B2R T290A = molecular target: T13, B2R T290A (Homo sapiens, UniProt P30411, T290A); assay: Calcium mobilization, CHO cells, B2R T290A; assay type: cell-based
# T13 construct: expressed in transfected cells; host or cells: CHO cells
# Method: as §1, §8, §2, §3
# B2R D293A = molecular target: T14, B2R D293A (Homo sapiens, UniProt P30411, D293A); assay: Calcium mobilization, CHO cells, B2R D293A; assay type: cell-based
# T14 construct: expressed in transfected cells; host or cells: CHO cells
# Method: as §1, §8, §2, §3
# B2R D311A = molecular target: T15, B2R D311A (Homo sapiens, UniProt P30411, D311A); assay: Calcium mobilization, CHO cells, B2R D311A; assay type: cell-based
# T15 construct: expressed in transfected cells; host or cells: CHO cells
# Method: as §1, §8, §2, §3
# B2R Q315A = molecular target: T16, B2R Q315A (Homo sapiens, UniProt P30411, Q315A); assay: Calcium mobilization, CHO cells, B2R Q315A; assay type: cell-based
# T16 construct: expressed in transfected cells; host or cells: CHO cells
# Method: as §1, §8, §2, §3
# B2R = settings: cited from earlier work
# Source text: The kallikrein-kinin system (KKS) consists of kininogens, kallikrein enzymes, kinins, type 1 and type 2 bradykinin receptors (B1R and B2R), which plays important roles in vasodilation, inflammation, vascular permeability, cardioprotection, coagulation, and pain[1]–[4]. Kinins are short-lived peptides of various lengths and they are produced by enzymatic hydrolysis of precursor kininogens. […] Both kinins ...
# T13 sequence (P30411 whole entry T290A): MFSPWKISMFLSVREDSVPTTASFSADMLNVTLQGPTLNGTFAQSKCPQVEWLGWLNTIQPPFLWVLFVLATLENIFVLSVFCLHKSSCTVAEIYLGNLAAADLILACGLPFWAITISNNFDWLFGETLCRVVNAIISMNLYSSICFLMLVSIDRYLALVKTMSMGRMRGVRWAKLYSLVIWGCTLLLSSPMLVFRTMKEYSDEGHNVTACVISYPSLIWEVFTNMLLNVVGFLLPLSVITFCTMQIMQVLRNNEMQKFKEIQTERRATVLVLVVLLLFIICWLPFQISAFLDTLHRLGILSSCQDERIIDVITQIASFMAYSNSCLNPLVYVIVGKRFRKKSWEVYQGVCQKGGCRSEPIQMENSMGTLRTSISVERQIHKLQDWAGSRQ
# T13 sequence (P50148 whole entry partner): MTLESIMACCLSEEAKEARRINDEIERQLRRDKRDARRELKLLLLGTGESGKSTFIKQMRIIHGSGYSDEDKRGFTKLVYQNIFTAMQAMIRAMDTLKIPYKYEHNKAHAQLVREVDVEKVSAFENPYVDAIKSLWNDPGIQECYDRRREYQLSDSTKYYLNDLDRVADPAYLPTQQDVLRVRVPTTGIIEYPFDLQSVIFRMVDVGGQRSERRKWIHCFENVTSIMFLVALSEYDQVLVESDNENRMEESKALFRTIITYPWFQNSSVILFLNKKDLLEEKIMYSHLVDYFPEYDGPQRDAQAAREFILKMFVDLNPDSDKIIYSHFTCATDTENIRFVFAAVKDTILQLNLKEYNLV
# T13 sequence (P62873 2-340 partner limits assumed): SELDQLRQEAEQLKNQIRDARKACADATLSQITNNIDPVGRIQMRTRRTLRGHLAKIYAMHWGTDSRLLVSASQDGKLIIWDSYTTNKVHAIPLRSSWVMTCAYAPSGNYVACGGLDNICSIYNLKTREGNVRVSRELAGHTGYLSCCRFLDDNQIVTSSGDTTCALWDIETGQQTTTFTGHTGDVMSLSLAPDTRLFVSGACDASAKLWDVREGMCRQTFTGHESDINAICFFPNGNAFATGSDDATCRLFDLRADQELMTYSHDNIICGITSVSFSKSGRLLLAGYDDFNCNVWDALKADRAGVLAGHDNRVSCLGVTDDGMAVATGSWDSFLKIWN
# T13 sequence (P59768 2-68 partner limits assumed): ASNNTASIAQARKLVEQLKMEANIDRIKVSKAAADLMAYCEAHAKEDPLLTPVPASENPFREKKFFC
# T12 sequence (P30411 whole entry S289A): as the sequence (P30411 whole entry T290A) above, with S289A, A290T counted along it
# T12 sequence (P50148 whole entry partner): as the sequence (P50148 whole entry partner) above
# T12 sequence (P62873 2-340 partner limits assumed): as the sequence (P62873 2-340 partner limits assumed) above
# T12 sequence (P59768 2-68 partner limits assumed): as the sequence (P59768 2-68 partner limits assumed) above
# T6 sequence (P30411 whole entry Y201A): as the sequence (P30411 whole entry T290A) above, with Y201A, A290T counted along it
# T6 sequence (P50148 whole entry partner): as the sequence (P50148 whole entry partner) above
# T6 sequence (P62873 2-340 partner limits assumed): as the sequence (P62873 2-340 partner limits assumed) above
# T6 sequence (P59768 2-68 partner limits assumed): as the sequence (P59768 2-68 partner limits assumed) above
# T9 sequence (P30411 whole entry Y322A): as the sequence (P30411 whole entry T290A) above, with A290T, Y322A counted along it
# T9 sequence (P50148 whole entry partner): as the sequence (P50148 whole entry partner) above
# T9 sequence (P62873 2-340 partner limits assumed): as the sequence (P62873 2-340 partner limits assumed) above
# T9 sequence (P59768 2-68 partner limits assumed): as the sequence (P59768 2-68 partner limits assumed) above
Compound,EC50 [1],EC50 [2],EC50 [3],EC50 (B2R W113A),EC50 (B2R F121A),EC50 (B2R Y201A),EC50 (B2R F286A),EC50 (B2R R297A),EC50 (B2R Y322A),EC50 (B2R E204A),EC50 (B2R I213A),EC50 (B2R S289A),EC50 (B2R T290A),EC50 (B2R D293A),EC50 (B2R D311A),EC50 (B2R Q315A),antagonist class at B2R (B2R)
NCCCC[C@H](N)C(=O)N[C@@H](CCCN=C(N)N)C(=O)N1CCC[C@H]1C(=O)N1CCC[C@H]1C(=O)NCC(=O)N[C@@H](Cc1ccccc1)C(=O)N[C@@H](CO)C(=O)N1CCC[C@H]1C(=O)N[C@@H](Cc1ccccc1)C(=O)N[C@@H](CCCN=C(N)N)C(=O)O [kallidin],0.753 nM,2.39 nM,6.67 nM,1050 nM,774 nM,92.9 nM,112 nM,1.62 nM,21.5 nM,13 nM,110 nM,1.38 nM,23.7 nM,5.38 nM,16.7 nM,66.7 nM,
D-Arg-Arg-Pro-Hyp-Gly-Thi-Ser-D-Tic-Oic-Arg [icatibant],,,,,,,,,,,,,,,,,B2R selective antagonist
